Test results published in PubChem BioAssay (NCI).
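Dose response: 5 concentrations. Exposure: 48 h. Format: 96-well plates. Endpoint: linear interpolation; highest concentration if not reached. At the GI50, growth is halved. TGI is the concentration that stops growth completely.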

Legend:
Assay in all cases: growth of human tumour cells (NCI), 48 h
[1] = system: 786-0 renal
[2] = system: A498 renal
[3] = system: A549 NSCLC
[4] = system: ACHN renal
[5] = system: BT-549 breast
[6] = system: CAKI-1 renal
[7] = system: CCRF-CEM leukemia
[8] = system: COLO 205 colon
[9] = system: DU-145 prostate
[10] = system: HCC-2998 colon
[11] = system: HCT-116 colon
[12] = system: HCT-15 colon
[13] = system: HL-60(TB) leukemia
[14] = system: HOP-62 NSCLC
[15] = system: HOP-92 NSCLC
[16] = system: HS 578T breast
[17] = system: HT29 colon
[18] = system: IGROV1 ovarian
[19] = system: K-562 leukemia
[20] = system: KM12 colon
[21] = system: LOX IMVI melanoma
[22] = system: M14 melanoma
[23] = system: MALME-3M melanoma
[24] = system: MCF7 breast
[25] = system: MDA-MB-231 breast
[26] = system: MDA-MB-435
[27] = system: MOLT-4 leukemia
[28] = system: NCI-H226 lung
[29] = system: NCI-H23 lung
[30] = system: NCI-H460 lung
[31] = system: NCI-H522 lung
[32] = system: NCI/ADR-RES ovarian
[33] = system: OVCAR-3 ovarian
[34] = system: OVCAR-4 ovarian
[35] = system: OVCAR-5 ovarian
[36] = system: OVCAR-8 ovarian
[37] = system: PC-3 prostate
[38] = system: RPMI-8226 leukemia
[39] = system: RXF 393 renal
[40] = system: SF-268 CNS
[41] = system: SF-295 CNS
[42] = system: SF-539 CNS
[43] = system: SK-MEL-2 melanoma
[44] = system: SK-MEL-28 melanoma
[45] = system: SK-MEL-5 melanoma
[46] = system: SK-OV-3 ovarian
[47] = system: SN12C renal
[48] = system: SNB-19 CNS
[49] = system: SNB-75 CNS
[50] = system: SR leukemia
[51] = system: SW-620 colon
[52] = system: T-47D breast
[53] = system: TK-10 renal
[54] = system: U251 CNS
[55] = system: UACC-257 melanoma
[56] = system: UACC-62 melanoma
[57] = system: UO-31 renal

Question: Which GI50 [1] does the source give for `O=C1NC(=O)C(c2c[nH]c3ccccc23)=C1c1c[nH]c2ccccc12` here?
Answer: The GI50 was > 19.1 µM.

Question: What about the TGI [1] of the same molecule?
Answer: Its TGI is > 25 µM.

Question: What about the GI50 [2] of the same molecule?
Answer: Its GI50 is 3.34 µM.

Question: And the TGI [2]?
Answer: Its TGI is > 25 µM.

Question: And the GI50 [3]?
Answer: The GI50 was 10.7 µM.

Question: And the TGI [3]?
Answer: The TGI was > 25 µM.

Question: And the GI50 [4]?
Answer: The GI50 was 9.25 µM.

Question: And the TGI [4]?
Answer: The TGI was > 25 µM.

Question: And the GI50 [5]?
Answer: Its GI50 is 10.3 µM.

Question: And the TGI [5]?
Answer: Its TGI is > 25 µM.

Question: And the GI50 [6]?
Answer: Its GI50 is 7.37 µM.

Question: And the TGI [6]?
Answer: Its TGI is > 25 µM.

Question: And the GI50 [7]?
Answer: The GI50 was 10.5 µM.

Question: What about the TGI [7] of the same molecule?
Answer: The TGI was > 25 µM.

Question: And the GI50 [8]?
Answer: The GI50 was 9.18 µM.

Question: And the TGI [8]?
Answer: Its TGI is > 25 µM.

Question: What about the GI50 [9] of the same molecule?
Answer: The GI50 was > 21.2 µM.

Question: What about the TGI [9] of the same molecule?
Answer: The TGI was > 25 µM.

Question: And the GI50 [10]?
Answer: The GI50 was 16.2 µM.

Question: And the TGI [10]?
Answer: Its TGI is > 25 µM.

Question: What about the GI50 [11] of the same molecule?
Answer: Its GI50 is 9.33 µM.

Question: And the TGI [11]?
Answer: The TGI was > 25 µM.

Question: And the GI50 [12]?
Answer: The GI50 was 8.32 µM.

Question: And the TGI [12]?
Answer: Its TGI is > 25 µM.

Question: And the GI50 [13]?
Answer: Its GI50 is 11.1 µM.

Question: What about the TGI [13] of the same molecule?
Answer: The TGI was > 25 µM.

Question: What about the GI50 [14] of the same molecule?
Answer: The GI50 was 16.5 µM.

Question: And the TGI [14]?
Answer: Its TGI is > 25 µM.

Question: And the GI50 [15]?
Answer: Its GI50 is 5.72 µM.

Question: And the TGI [15]?
Answer: The TGI was > 25 µM.

Question: And the GI50 [16]?
Answer: The GI50 was 5.56 µM.

Question: And the TGI [16]?
Answer: Its TGI is > 25 µM.

Question: And the GI50 [17]?
Answer: The GI50 was 11.2 µM.

Question: And the TGI [17]?
Answer: The TGI was > 25 µM.

Question: What about the GI50 [18] of the same molecule?
Answer: The GI50 was > 20.9 µM.

Question: What about the TGI [18] of the same molecule?
Answer: Its TGI is > 25 µM.

Question: What about the GI50 [19] of the same molecule?
Answer: The GI50 was 11.1 µM.

Question: And the TGI [19]?
Answer: Its TGI is > 25 µM.

Question: And the GI50 [20]?
Answer: Its GI50 is 9.3 µM.

Question: What about the TGI [20] of the same molecule?
Answer: Its TGI is > 25 µM.

Question: What about the GI50 [21] of the same molecule?
Answer: Its GI50 is 5.31 µM.

Question: And the TGI [21]?
Answer: Its TGI is > 25 µM.

Question: And the GI50 [22]?
Answer: The GI50 was 10.9 µM.

Question: What about the TGI [22] of the same molecule?
Answer: The TGI was > 25 µM.

Question: And the GI50 [23]?
Answer: Its GI50 is > 14.7 µM.

Question: And the TGI [23]?
Answer: Its TGI is > 25 µM.

Question: What about the GI50 [24] of the same molecule?
Answer: The GI50 was 9.32 µM.

Question: What about the TGI [24] of the same molecule?
Answer: Its TGI is > 25 µM.

Question: What about the GI50 [25] of the same molecule?
Answer: Its GI50 is 12.6 µM.

Question: What about the TGI [25] of the same molecule?
Answer: Its TGI is > 25 µM.

Question: What about the GI50 [26] of the same molecule?
Answer: Its GI50 is 6.86 µM.

Question: And the TGI [26]?
Answer: Its TGI is > 25 µM.

Question: And the GI50 [27]?
Answer: Its GI50 is 9.55 µM.

Question: And the TGI [27]?
Answer: The TGI was > 25 µM.

Question: What about the GI50 [28] of the same molecule?
Answer: The GI50 was 3.83 µM.

Question: What about the TGI [28] of the same molecule?
Answer: Its TGI is > 25 µM.

Question: And the GI50 [29]?
Answer: Its GI50 is 14.7 µM.

Question: What about the TGI [29] of the same molecule?
Answer: Its TGI is > 25 µM.

Question: What about the GI50 [30] of the same molecule?
Answer: Its GI50 is 10.6 µM.

Question: What about the TGI [30] of the same molecule?
Answer: The TGI was > 25 µM.

Question: And the GI50 [31]?
Answer: Its GI50 is 8.11 µM.

Question: And the TGI [31]?
Answer: Its TGI is > 25 µM.

Question: What about the GI50 [32] of the same molecule?
Answer: The GI50 was 12.8 µM.

Question: What about the TGI [32] of the same molecule?
Answer: The TGI was > 25 µM.

Question: What about the GI50 [33] of the same molecule?
Answer: The GI50 was 17.5 µM.

Question: What about the TGI [33] of the same molecule?
Answer: The TGI was > 25 µM.

Question: What about the GI50 [34] of the same molecule?
Answer: Its GI50 is 10.9 µM.

Question: What about the TGI [34] of the same molecule?
Answer: Its TGI is > 25 µM.

Question: And the GI50 [35]?
Answer: Its GI50 is > 25 µM.

Question: And the TGI [35]?
Answer: The TGI was > 25 µM.

Question: What about the GI50 [36] of the same molecule?
Answer: The GI50 was 15.8 µM.

Question: What about the TGI [36] of the same molecule?
Answer: The TGI was > 25 µM.

Question: And the GI50 [37]?
Answer: Its GI50 is 10.2 µM.

Question: And the TGI [37]?
Answer: The TGI was > 25 µM.

Question: What about the GI50 [38] of the same molecule?
Answer: The GI50 was 9.48 µM.

Question: What about the TGI [38] of the same molecule?
Answer: Its TGI is > 25 µM.

Question: And the GI50 [39]?
Answer: The GI50 was 4.57 µM.

Question: And the TGI [39]?
Answer: The TGI was 24.3 µM.

Question: And the GI50 [40]?
Answer: Its GI50 is 16.3 µM.

Question: What about the TGI [40] of the same molecule?
Answer: The TGI was > 25 µM.

Question: And the GI50 [41]?
Answer: The GI50 was 13.3 µM.

Question: What about the TGI [41] of the same molecule?
Answer: Its TGI is > 25 µM.

Question: What about the GI50 [42] of the same molecule?
Answer: Its GI50 is 9.73 µM.

Question: And the TGI [42]?
Answer: Its TGI is > 25 µM.

Question: And the GI50 [43]?
Answer: Its GI50 is 12 µM.

Question: What about the TGI [43] of the same molecule?
Answer: Its TGI is > 25 µM.

Question: What about the GI50 [44] of the same molecule?
Answer: Its GI50 is 15.1 µM.

Question: And the TGI [44]?
Answer: The TGI was > 25 µM.

Question: And the GI50 [45]?
Answer: The GI50 was 5.96 µM.

Question: What about the TGI [45] of the same molecule?
Answer: Its TGI is 20.2 µM.

Question: What about the GI50 [46] of the same molecule?
Answer: The GI50 was 13.5 µM.

Question: And the TGI [46]?
Answer: Its TGI is > 25 µM.

Question: And the GI50 [47]?
Answer: Its GI50 is 16.3 µM.

Question: And the TGI [47]?
Answer: Its TGI is > 25 µM.

Question: What about the GI50 [48] of the same molecule?
Answer: The GI50 was > 25 µM.

Question: What about the TGI [48] of the same molecule?
Answer: The TGI was > 25 µM.

Question: And the GI50 [49]?
Answer: Its GI50 is 4.11 µM.

Question: And the TGI [49]?
Answer: The TGI was > 25 µM.

Question: What about the GI50 [50] of the same molecule?
Answer: The GI50 was 6.87 µM.

Question: And the TGI [50]?
Answer: The TGI was > 25 µM.

Question: What about the GI50 [51] of the same molecule?
Answer: The GI50 was 13.3 µM.

Question: And the TGI [51]?
Answer: The TGI was > 25 µM.

Question: What about the GI50 [52] of the same molecule?
Answer: The GI50 was 10.2 µM.

Question: What about the TGI [52] of the same molecule?
Answer: Its TGI is > 25 µM.

Question: What about the GI50 [53] of the same molecule?
Answer: The GI50 was 19.2 µM.

Question: What about the TGI [53] of the same molecule?
Answer: Its TGI is > 25 µM.

Question: What about the GI50 [54] of the same molecule?
Answer: Its GI50 is 10.2 µM.

Question: What about the TGI [54] of the same molecule?
Answer: Its TGI is > 25 µM.

Question: What about the GI50 [55] of the same molecule?
Answer: The GI50 was 15.6 µM.

Question: What about the TGI [55] of the same molecule?
Answer: Its TGI is > 25 µM.

Question: What about the GI50 [56] of the same molecule?
Answer: Its GI50 is 12.1 µM.

Question: And the TGI [56]?
Answer: Its TGI is > 25 µM.

Question: What about the GI50 [57] of the same molecule?
Answer: The GI50 was 3.08 µM.

Question: And the TGI [57]?
Answer: Its TGI is > 25 µM.
